Experiment [1] has as its target T1, Alpha-1D adrenergic receptor (Rattus norvegicus, UniProt P23944).
T1 sequence (P23944 whole entry): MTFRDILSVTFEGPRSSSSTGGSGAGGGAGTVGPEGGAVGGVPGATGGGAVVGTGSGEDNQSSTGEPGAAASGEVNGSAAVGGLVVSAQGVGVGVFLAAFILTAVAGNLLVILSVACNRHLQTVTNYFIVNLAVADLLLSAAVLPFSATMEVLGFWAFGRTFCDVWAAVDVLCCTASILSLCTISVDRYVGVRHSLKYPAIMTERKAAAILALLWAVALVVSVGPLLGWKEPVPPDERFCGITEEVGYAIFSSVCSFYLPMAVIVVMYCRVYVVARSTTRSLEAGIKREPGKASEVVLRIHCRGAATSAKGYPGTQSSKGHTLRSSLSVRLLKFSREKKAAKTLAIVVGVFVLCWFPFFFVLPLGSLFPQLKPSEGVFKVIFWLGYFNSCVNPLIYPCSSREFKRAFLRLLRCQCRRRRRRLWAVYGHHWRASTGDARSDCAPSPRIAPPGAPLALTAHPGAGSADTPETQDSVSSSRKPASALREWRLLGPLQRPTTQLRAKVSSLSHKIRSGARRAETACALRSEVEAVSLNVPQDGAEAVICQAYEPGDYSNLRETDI
Kind of experiment: Binding affinity towards rat Alpha-1D adrenergic receptor.

Experiment [2] concerns the target T2, Alpha-1A adrenergic receptor (Bos taurus, UniProt P18130).
T2 sequence (P18130 whole entry): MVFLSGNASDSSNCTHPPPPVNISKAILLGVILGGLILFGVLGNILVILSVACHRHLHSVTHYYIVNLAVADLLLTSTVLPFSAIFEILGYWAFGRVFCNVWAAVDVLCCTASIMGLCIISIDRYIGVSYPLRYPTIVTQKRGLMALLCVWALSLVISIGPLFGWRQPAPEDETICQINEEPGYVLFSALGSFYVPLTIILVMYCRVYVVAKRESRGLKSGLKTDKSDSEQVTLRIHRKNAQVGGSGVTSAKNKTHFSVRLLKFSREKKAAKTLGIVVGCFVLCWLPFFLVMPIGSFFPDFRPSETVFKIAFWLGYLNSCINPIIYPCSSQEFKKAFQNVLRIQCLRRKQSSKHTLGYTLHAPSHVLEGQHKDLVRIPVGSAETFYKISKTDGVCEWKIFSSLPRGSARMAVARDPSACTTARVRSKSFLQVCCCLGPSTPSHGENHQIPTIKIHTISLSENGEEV
Nature of the experiment: Binding affinity towards bovine Alpha-1A adrenergic receptor.

The target of experiment [3] is T3, Alpha-1A adrenergic receptor (Homo sapiens, UniProt P35348).
T3 sequence (P35348 whole entry): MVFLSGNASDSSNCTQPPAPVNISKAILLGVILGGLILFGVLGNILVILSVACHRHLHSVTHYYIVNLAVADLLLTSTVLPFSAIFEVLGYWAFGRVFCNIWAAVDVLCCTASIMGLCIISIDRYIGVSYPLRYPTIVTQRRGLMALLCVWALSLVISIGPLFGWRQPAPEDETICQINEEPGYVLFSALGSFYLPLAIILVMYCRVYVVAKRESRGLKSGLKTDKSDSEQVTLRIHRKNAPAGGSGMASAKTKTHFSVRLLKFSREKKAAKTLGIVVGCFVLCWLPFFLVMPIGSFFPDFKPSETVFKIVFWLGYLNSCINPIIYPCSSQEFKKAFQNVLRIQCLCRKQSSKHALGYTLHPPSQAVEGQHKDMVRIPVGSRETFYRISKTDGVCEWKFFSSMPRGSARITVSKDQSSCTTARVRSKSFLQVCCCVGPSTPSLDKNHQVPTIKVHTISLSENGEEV
Nature of the experiment: Binding affinity for human Alpha-1A adrenergic receptor.

Experiment [4] addresses T4, Alpha-1A adrenergic receptor (Rattus norvegicus, UniProt P43140).
T4 sequence (P43140 whole entry): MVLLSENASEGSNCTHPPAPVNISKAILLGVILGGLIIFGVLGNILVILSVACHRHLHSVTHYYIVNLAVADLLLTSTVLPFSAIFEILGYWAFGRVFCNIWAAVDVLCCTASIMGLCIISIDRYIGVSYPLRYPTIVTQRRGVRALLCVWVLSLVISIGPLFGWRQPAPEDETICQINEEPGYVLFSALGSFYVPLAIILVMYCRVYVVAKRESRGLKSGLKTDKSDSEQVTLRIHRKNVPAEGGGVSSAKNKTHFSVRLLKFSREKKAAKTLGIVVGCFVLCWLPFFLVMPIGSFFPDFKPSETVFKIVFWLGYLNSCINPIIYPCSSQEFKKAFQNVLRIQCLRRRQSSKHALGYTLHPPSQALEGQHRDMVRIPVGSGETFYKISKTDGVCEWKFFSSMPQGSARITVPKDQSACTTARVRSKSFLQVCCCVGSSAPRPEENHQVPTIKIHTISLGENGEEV
Nature of the experiment: Binding affinity towards rat Alpha-1A adrenergic receptor.

Experiment [5] deals with T5, Alpha-1D adrenergic receptor (Homo sapiens, UniProt P25100).
T5 sequence (P25100 whole entry): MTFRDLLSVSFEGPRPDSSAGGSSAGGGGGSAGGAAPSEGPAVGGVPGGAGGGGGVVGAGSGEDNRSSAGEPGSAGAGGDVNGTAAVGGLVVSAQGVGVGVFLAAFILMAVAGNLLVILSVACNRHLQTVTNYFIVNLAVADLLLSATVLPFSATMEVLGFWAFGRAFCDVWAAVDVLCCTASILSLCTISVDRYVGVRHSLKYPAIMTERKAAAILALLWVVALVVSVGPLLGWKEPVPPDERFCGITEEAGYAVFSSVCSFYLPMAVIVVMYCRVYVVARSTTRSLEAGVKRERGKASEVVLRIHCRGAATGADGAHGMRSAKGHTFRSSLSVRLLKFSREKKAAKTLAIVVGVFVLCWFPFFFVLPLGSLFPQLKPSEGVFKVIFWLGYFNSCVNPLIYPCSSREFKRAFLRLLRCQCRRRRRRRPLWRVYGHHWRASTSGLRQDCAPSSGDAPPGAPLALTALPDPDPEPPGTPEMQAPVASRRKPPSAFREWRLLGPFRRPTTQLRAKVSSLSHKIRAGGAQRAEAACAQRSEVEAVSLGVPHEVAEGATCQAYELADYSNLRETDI
Nature of the experiment: Binding affinity towards human Alpha-1D adrenergic receptor.

Experiment [6] addresses T6, Alpha-1B adrenergic receptor (Homo sapiens, UniProt P35368).
T6 sequence (P35368 whole entry): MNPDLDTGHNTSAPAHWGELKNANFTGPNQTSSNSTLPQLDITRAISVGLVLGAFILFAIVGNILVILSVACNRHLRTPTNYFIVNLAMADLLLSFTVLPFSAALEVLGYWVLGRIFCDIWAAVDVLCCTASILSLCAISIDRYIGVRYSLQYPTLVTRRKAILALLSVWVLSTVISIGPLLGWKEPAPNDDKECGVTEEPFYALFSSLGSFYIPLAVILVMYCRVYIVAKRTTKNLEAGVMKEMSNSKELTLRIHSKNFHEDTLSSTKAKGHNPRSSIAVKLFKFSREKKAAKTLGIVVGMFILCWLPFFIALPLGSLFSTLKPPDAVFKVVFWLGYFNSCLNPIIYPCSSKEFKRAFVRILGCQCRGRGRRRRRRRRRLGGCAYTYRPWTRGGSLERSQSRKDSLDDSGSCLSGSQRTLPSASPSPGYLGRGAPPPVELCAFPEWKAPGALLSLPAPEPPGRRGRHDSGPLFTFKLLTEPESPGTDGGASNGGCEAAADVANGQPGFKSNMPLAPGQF
Kind of experiment: Binding affinity towards human Alpha-1B adrenergic receptor.

Experiment [7] deals with T7, Alpha-1B adrenergic receptor (Rattus norvegicus, UniProt P15823).
T7 sequence (P15823 whole entry): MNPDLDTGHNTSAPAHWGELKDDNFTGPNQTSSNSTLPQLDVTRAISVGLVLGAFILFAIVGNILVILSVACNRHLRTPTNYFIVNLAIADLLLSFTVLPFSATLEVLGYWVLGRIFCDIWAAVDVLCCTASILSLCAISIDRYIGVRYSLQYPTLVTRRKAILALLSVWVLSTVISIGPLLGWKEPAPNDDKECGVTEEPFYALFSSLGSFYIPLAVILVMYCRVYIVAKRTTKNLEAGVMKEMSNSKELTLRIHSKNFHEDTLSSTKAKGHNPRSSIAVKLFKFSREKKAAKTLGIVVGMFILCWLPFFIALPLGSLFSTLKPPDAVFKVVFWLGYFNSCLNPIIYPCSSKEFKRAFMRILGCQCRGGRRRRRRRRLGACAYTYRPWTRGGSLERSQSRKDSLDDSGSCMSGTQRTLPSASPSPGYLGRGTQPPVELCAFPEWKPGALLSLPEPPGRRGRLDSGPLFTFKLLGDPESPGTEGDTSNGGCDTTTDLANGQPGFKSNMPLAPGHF
Kind of experiment: In vitro functional activity at Alpha-1B adrenergic receptor in rat spleen. In kind it is tissue-based. To be noted: read-out: pA2 (converted).

Data on 7 compounds can be found in ChEMBL document CHEMBL1134245, “Two novel and potent 3-[(o-methoxyphenyl)piperazinylethyl]-5-phenylthien” (Bioorg Med Chem Lett, 2001).

As for `COc1ccccc1N1CCN(CCn2c(=O)c3c(-c4ccccc4)csc3n(C)c2=O)CC1`, the Ki was determined as 0.71 nM in experiment [1], 0.436 nM in experiment [2], 3.1 nM in experiment [3] and 2.62 nM in experiment [4].

Take `CC(CN1CCN(c2cc(F)c(F)cc2F)CC1)N1C(=O)CC2(CCCC2)CC1=O` (single isomer, unassigned): the values for the Ki in experiment [5] and in experiment [3] were 1.3 nM and 14900 nM, respectively.

Consider `COc1ccccc1N1CCN(CCCn2c(=O)[nH]c3scc(-c4ccccc4)c3c2=O)CC1`, for which the Ki in experiment [6] came to 15.8 nM; in experiment [1] it was 8.2 nM; in experiment [2], 1.25 nM; in experiment [5], 7.15 nM; in experiment [3] it was 8.49 nM; in experiment [4], 9.58 nM.

Consider `COc1ccccc1N1CCN(CCn2c(=O)[nH]c3sc(C)c(-c4ccccc4)c3c2=O)CC1`, for which the Ki in experiment [6] was found to be 3.7 nM; in experiment [1], 0.251 nM; in experiment [2], 0.377 nM; in experiment [5], 0.466 nM; in experiment [3] it was 2.63 nM; in experiment [4] it was 1.97 nM.

Turning to `COc1ccccc1N1CCN(CCN2C(=O)CC3(CCCC3)CC2=O)CC1` [BMY-7378], the Ki in experiment [6] came out at 94.3 nM; in experiment [2], 43 nM. The Kb in experiment [7] was 42.7 nM.

With `COc1ccccc1N1CCN(CCn2c(=O)[nH]c3sccc3c2=O)CC1`, the Ki in experiment [6] was 1.22 nM; in experiment [1] it was 0.229 nM; in experiment [2] it was 0.181 nM; in experiment [5] it was 0.308 nM; in experiment [3], 0.344 nM; in experiment [4], 0.523 nM.

Regarding `COc1ccccc1N1CCN(CCn2c(=O)[nH]c3sc(-c4ccccc4)cc3c2=O)CC1`, the Ki stood at 1.86 nM in experiment [6]; 0.361 nM in experiment [1]; 0.248 nM in experiment [2]; 0.868 nM in experiment [3]; 0.578 nM in experiment [4].

Broadly, the Ki is the equilibrium dissociation constant of an inhibitor or competing ligand from its target. Read a high Ki as weaker binding.
